# In patent US12514845B2, “Ionic-liquid-based formulations for the prevention or treatment of neurological diseases” (Universidade De Aveiro, priority 2022, dated 2026):
# Tests used:
# [1] = system: N27 dopaminergic neuronal cells exposed to MPP+; details: 24 h (FIG. 8)
# From the text: The data are presented as percentage of control as the mean±SEM of at least five repetitions of three independent experiments (n=3).
# [2] = system: dopaminergic neurons in the substantia nigra (SN); assay: 6OHDA intrastriatal injection mouse model of PD, TH+ neuron count in SN; assay type: in vivo; details: 6-OHDA 10 μg/2 μL right striatum, day 7, vs control group (FIG. 10)
# Method: In an embodiment, the biological neuroprotective effect of [Chol]2[N1(4)inh]+N1(4)inh+N1(4)inh when administrated via brain intraventricular infusion route was evaluated in an mouse model for PD induced by the intracerebral injection of 6OHDA, and the number of dopaminergic neurons in the substantia nigra counted.
# In an embodiment, Male C57BL/6 mice were anesthetized and placed in the digital stereotaxic frame. Once the mouse skull was exposed, and using a digital coordinates system, injection and infusion sites were determined setting the zero at the bregma point. Hereupon, an injection of 6-OHDA (10 μg/2 μL of ascorbic acid 0.1% v/v) was performed in the right striatum (ST) of each animal using the coordinates: medial-lateral (ML): −2 mm; anterior-posterior (AP): 0.6 mm; dorsoventral (DV): −3.0 mm, using a Hamilton syringe at speed of 0.2 μL/min. The delivery of 0.2 mg/kg/day of [Chol]2[N1(4)inh]+N1(4)inh+N1(4)inh was performed as describe above. […]
# The results are expressed as a percentage of Saline (Group (1) which are animals exposed only to saline solution) and represented as the mean±SEM of at least 3 independent experiments (n=3-4). […]
# in vitro = details: rat
# Method: (§1) The data are presented as percentage of control and presented as the mean±SEM of at least five repetitions of three independent experiments (n=3). Statistical analysis was performed using one-way ANOVA (non-parametric analysis), followed by the Kruskal-Wallis test, followed by Dunn's multiple comparison test. **p<0.01 compared to CTR or the group of cells exposed to cholinium chloride only +++p<0.001 compared to 6OHDA.
# [3] = system: N27 dopaminergic neuronal cells exposed to 6OHDA; details: 20 μM pretreatment 2.5 h before 50 μM 6OHDA, 24 h (FIG. 7)
# Method: as §1
smiles,measurement,setting,value
"C[n+]1ccc(-c2ccccc2)cc1 [MPP+, 1-methyl-4-phenylpyridinium]",loss of N27 cells viability,[1]; 10 μM MPP+,45%
"NCCc1cc(O)c(O)cc1O [6OHDA, 6-hydroxydopamine]",reduction in the number of SN dopaminergic neurons,[2],45%
same,"cytotoxicity at 24 h, 50 µM",in vitro,45%
C[N+](C)(C)CCO.[Cl-] [cholinium chloride],prevention of 6OHDA-induced neurotoxicity (cell viability),[3],not prevented
same,prevention of MPP+ dopaminergic neurotoxicity (cell viability),[1]; 20 μM pretreatment 2.5 h before 10 μM MPP+,did not exert any protective effect
